Experimental data from patent US10738056B2 (Aduro BioTech, Inc., priority 2017, dated 2020).

Key:
[1] = tested on: RANTES/CCL5 secretion by Trex1-KO BMM; experiment: Inhibition of RANTES/CCL5 secretion by Trex1-KO bone marrow-derived macrophages; format: cell-based, mice; set-up: key to BMM IC50 R (RANTES): A: an IC50 value less than 5 μM; B: an IC50 value between 5 and 20 μM; where an IC50 value could not be calculated from the data; conditions: RANTES secretion; for IC50: Mus musculus, Macrophage, read-out: BMM IC50 R (RANTES)
Protocol: (§1) A cellular assay can be used to asses the compounds of the invention for their ability to inhibit cytokine production. Bone marrow macrophages harvested from mice can be used to determine response as a function of compound concentration.
(§2) The inhibition of secreted cytokine was measured in bone marrow-derived macrophages (BMMs) from diseased mice to evaluate the potency of compounds of the invention as described herein. […] To derive bone marrow macrophages, marrow extracted from the femurs and tibias were harvested from Trex1-KO mice was cultured in growth media supplemented with macrophage colony-stimulating factor (M-CSF). Differentiated BMM were harvested and frozen for subsequent experimentation. For treatment with compound C1089 (see Example 13), a frozen stock of Trex1-KO BMM was thawed and 1×10^5 cells were plated in 96 well format. BMMs were treated with a dilution series of C1089 and incubated overnight at 37° C. 5% CO2, at which point cellular supernatants were harvested and stored at −80° C. for subsequent analysis. The media used for this dilution series was without FBS. Remaining cells were evaluated for viability using Cell Titer Glo 2.0 kit according to the manufacturer instructions. BMM supernatants were evaluated for the secreted cytokine […] (RANTES/CCL5) or for secreted cytokine monocyte chemoattractant protein 1 (MCP-1/CCL2) using cytometric bead array mouse Flex Set kits (BD Biosciences). Cytokine concentration was calculated from a standard curve and normalized to vehicle (DMSO) treated cells.

[2] = tested on: MCP-1/CCL2 secretion by Trex1-KO BMM; experiment: Inhibition of MCP-1/CCL2 secretion by Trex1-KO bone marrow-derived macrophages; format: cell-based, mice; set-up: key to BMM IC50 M (MCP-1): A: an IC50 value less than 5 μM; B: an IC50 value between 5 and 20 μM; where an IC50 value could not be calculated from the data; conditions: MCP-1 secretion; for IC50: Mus musculus, Macrophage, read-out: BMM IC50 M (MCP-1)
Protocol: as §1, §2

[3] = target: Human cGAS amino acids 155-522 (Homo sapiens (Human), UniProt Q8N884); experiment: cGAS biochemical activity assay (ATP remaining, Kinase-Glo Max luminescence); conditions: human cGAS 155-522, ATP remaining (Kinase-Glo Max); read-out: cGAS IC50
Human cGAS amino acids 155-522, sequence (Q8N884 157-522): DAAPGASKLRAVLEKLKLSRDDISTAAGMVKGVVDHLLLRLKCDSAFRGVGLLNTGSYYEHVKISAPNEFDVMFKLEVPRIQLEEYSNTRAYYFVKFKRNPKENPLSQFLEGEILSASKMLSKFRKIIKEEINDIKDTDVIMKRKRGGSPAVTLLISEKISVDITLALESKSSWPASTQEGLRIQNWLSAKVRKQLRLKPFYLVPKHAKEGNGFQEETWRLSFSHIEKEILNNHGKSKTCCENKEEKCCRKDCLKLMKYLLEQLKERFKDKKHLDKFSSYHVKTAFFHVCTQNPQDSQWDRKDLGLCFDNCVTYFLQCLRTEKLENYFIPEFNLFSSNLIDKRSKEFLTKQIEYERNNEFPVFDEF

[4] = tested on: cGAS/STING pathway in THP1 cells; experiment: THP1 cell-based cGAS/STING pathway activity assay (IRF-3-linked luciferase reporter); conditions: Homo sapiens, THP-1
Procedure, shortened: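 THP1 cells carrying an IRF-3-driven luciferase reporter were read across a range of compound concentrations, and IC50 values were derived from these concentration responses; the assay upper limit was 100 μM.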

| SMILES | BMM IC50 R (RANTES) [1] | BMM IC50 M (MCP-1) [2] | IC50 [3] | IC50 [4] | IC50 [2] | IC50 [1] |
| --- | --- | --- | --- | --- | --- | --- |
| CCOC(=O)C1CC=C(c2[nH]c3c(-c4ccccc4)c(C(F)(F)F)nn3c(=O)c2-c2nc3c(OC)cccc3o2)CC1 (centres unmarked) [Compound C1233, ethyl 4-(6-(4-methoxybenzo[d]oxazol-2-yl)-7-oxo-3-phenyl-2-(trifluoromethyl)-4,7-dihydropyrazolo[1,5-a]pyrimidin-5-yl)cyclohex-3-ene-1-carboxylate] | C | C | < 20 µM | < 20 µM | – | – |
| Cc1[nH]c2c(-c3ccccc3)c(C(F)(F)F)nn2c(=O)c1-c1nc2c(Cl)cccc2o1 [Compound C1055, 6-(4-chlorobenzo[d]oxazol-2-yl)-5-methyl-3-phenyl-2-(trifluoromethyl)pyrazolo[1,5-a]pyrimidin-7(4H)-one] | C | C | < 20 µM | < 20 µM | – | – |
| COc1cccc2oc(-c3c(C)[nH]c4c(-c5cccc(F)c5)c(C(F)(F)F)nn4c3=O)nc12 [Compound C1114, 3-(3-fluorophenyl)-6-(4-methoxybenzo[d]oxazol-2-yl)-5-methyl-2-(trifluoromethyl)pyrazolo[1,5-a]pyrimidin-7(4H)-one] | C | – | < 20 µM | < 20 µM | 5 to 20 µM | – |
| COc1cccc2oc(-c3c(COC4CCCCO4)[nH]c4c(-c5ccccc5)c(C(F)(F)F)nn4c3=O)nc12 (centres unmarked) [Compound C1134, 6-(4-methoxybenzo[d]oxazol-2-yl)-3-phenyl-5-(((tetrahydro-2H-pyran-2-yl)oxy)methyl)-2-(trifluoromethyl)pyrazolo[1,5-a]pyrimidin-7(4H)-one] | C | – | < 20 µM | < 20 µM | 5 to 20 µM | – |
| COc1cc(C)cc2oc(-c3c(C)[nH]c4c(-c5ccccc5)c(C(F)(F)F)nn4c3=O)nc12 [Compound C1098, 6-(4-methoxy-6-methylbenzo[d]oxazol-2-yl)-5-methyl-3-phenyl-2-(trifluoromethyl)pyrazolo[1,5-a]pyrimidin-7(4H)-one] | – | – | < 20 µM | < 20 µM | 5 to 20 µM | < 5 µM |
| Cc1[nH]c2c(-c3ccccc3)c(C(F)(F)F)nn2c(=O)c1-c1nc2c(OCC(=O)O)cccc2o1 [Compound C1117, 2-((2-(5-methyl-7-oxo-3-phenyl-2-(trifluoromethyl)-4,7-dihydropyrazolo[1,5-a]pyrimidin-6-yl)benzo[d]oxazol-4-yl)oxy)acetic acid] | C | C | < 20 µM | > 100 µM | – | – |
| COc1cccc2oc(-c3c(CCC(=O)O)[nH]c4c(-c5ccccc5)c(C(F)(F)F)nn4c3=O)nc12 [Compound C1173, 3-(6-(4-methoxybenzo[d]oxazol-2-yl)-7-oxo-3-phenyl-2-(trifluoromethyl)-4,7-dihydropyrazolo[1,5-a]pyrimidin-5-yl)propanoic acid] | C | C | < 20 µM | 20 to 100 µM | – | – |
| COc1c(C#N)ccc2oc(-c3c(C)[nH]c4c(-c5ccccc5)c(C(F)(F)F)nn4c3=O)nc12 [Compound C1126, 4-methoxy-2-(5-methyl-7-oxo-3-phenyl-2-(trifluoromethyl)-4,7-dihydropyrazolo[1,5-a]pyrimidin-6-yl)benzo[d]oxazole-5-carbonitrile] | C | C | < 20 µM | 20 to 100 µM | – | – |
| COc1ccc(C(N)=O)c2oc(-c3c(C)[nH]c4c(-c5ccccc5)c(C(F)(F)F)nn4c3=O)nc12 [Compound C1113, 4-methoxy-2-(5-methyl-7-oxo-3-phenyl-2-(trifluoromethyl)-4,7-dihydropyrazolo[1,5-a]pyrimidin-6-yl)benzo[d]oxazole-7-carboxamide] | C | – | < 20 µM | < 20 µM | < 5 µM | – |
| COc1cc(Cl)cc2oc(-c3c(C)[nH]c4c(-c5ccccc5)c(C(F)(F)F)nn4c3=O)nc12 [Compound C1105, 6-(6-chloro-4-methoxybenzo[d]oxazol-2-yl)-5-methyl-3-phenyl-2-(trifluoromethyl)pyrazolo[1,5-a]pyrimidin-7(4H)-one] | – | – | < 20 µM | < 20 µM | 5 to 20 µM | < 5 µM |
| COc1ccc(Br)c2oc(-c3c(C)[nH]c4c(-c5ccccc5)c(C(F)(F)F)nn4c3=O)nc12 [Compound C1081, 6-(7-bromo-4-methoxybenzo[d]oxazol-2-yl)-5-methyl-3-phenyl-2-(trifluoromethyl)pyrazolo[1,5-a]pyrimidin-7(4H)-one] | – | – | < 20 µM | < 20 µM | 5 to 20 µM | 5 to 20 µM |
| Cc1[nH]c2c(-c3ccccc3)c(C(F)(F)F)nn2c(=O)c1-c1nc2c(OCc3ccccc3)cccc2o1 [Compound C1073, 6-(4-(benzyloxy)benzo[d]oxazol-2-yl)-5-methyl-3-phenyl-2-(trifluoromethyl)pyrazolo[1,5-a]pyrimidin-7(4H)-one] | C | C | < 20 µM | < 20 µM | – | – |
| COc1cccc2oc(-c3c(C)[nH]c4c(-c5cc(F)cc(F)c5)c(C(F)(F)F)nn4c3=O)nc12 [Compound C1119, 3-(3,5-difluorophenyl)-6-(4-methoxybenzo[d]oxazol-2-yl)-5-methyl-2-(trifluoromethyl)pyrazolo[1,5-a]pyrimidin-7(4H)-one] | C | C | < 20 µM | < 20 µM | – | – |
| CO[C@@](c1ccccc1)(c1nnc(-c2c(C)[nH]c3c(-c4ccccc4)c(C(F)(F)F)nn3c2=O)o1)C(F)(F)F [Compound D1028, (S)-5-methyl-3-phenyl-6-(5-(2,2,2-trifluoro-1-methoxy-1-phenylethyl)-1,3,4-oxadiazol-2-yl)-2-(trifluoromethyl)pyrazolo[1,5-a]pyrimidin-7(4H)-one] | C | C | < 20 µM | > 100 µM | – | – |
| Cc1[nH]c2c(-c3ccccc3)c(C(F)(F)F)nn2c(=O)c1C(=O)Nc1cccc(OC2CCCC2)c1 [Compound A1082, N-(3-(cyclopentyloxy)phenyl)-5-methyl-7-oxo-3-phenyl-2-(trifluoromethyl)-4,7-dihydropyrazolo[1,5-a]pyrimidine-6-carboxamide] | C | C | < 20 µM | < 20 µM | – | – |
| COc1cc(N)cc2oc(-c3c(C)[nH]c4c(-c5ccccc5)c(C(F)(F)F)nn4c3=O)nc12 [Compound C1123, 6-(6-amino-4-methoxybenzo[d]oxazol-2-yl)-5-methyl-3-phenyl-2-(trifluoromethyl)pyrazolo[1,5-a]pyrimidin-7(4H)-one] | C | C | < 20 µM | 20 to 100 µM | – | – |
| COc1cccc2oc(-c3c(C)[nH]c4c(-c5ccccc5F)c(C(F)(F)F)nn4c3=O)nc12 [Compound C1091, 3-(2-fluorophenyl)-6-(4-methoxybenzo[d]oxazol-2-yl)-5-methyl-2-(trifluoromethyl)pyrazolo[1,5-a]pyrimidin-7(4H)-one] | C | C | < 20 µM | < 20 µM | – | – |
